Experiments:
MDA-MB-231 = test: Antiproliferative activity against human MDA-MB-231 cells after 48 hrs by MTT assay; format: functional, cell-based; settings: MDA-MB-231, 48 h
MCF7 = test: cells; settings: Homo sapiens, MCF7, 48 h
HCT-116 [1] = test: cells; settings: Homo sapiens, HCT-116, 48 h
HeLa [2] = test: cells; settings: Homo sapiens, 48 h
Sus scrofa = organism: Sus scrofa; test: Inhibition of pig brain tubulin polymerization at 10 uM by spectrophotometric analysis
HEK293 = test: Antiproliferative activity against HEK293 cells after 48 hrs by MTT assay; format: cell-based; settings: Homo sapiens, HEK293, 48 h
HCT-116 [3] = test: Potency index, ratio of CA-4 IC50 to compound IC50 for human HCT116 cells; format: functional
HeLa [4] = test: Cell cycle arrest in human HeLa cells assessed as accumulation at G2/M phase at 5 uM after 12 hrs by FACS analysis (reference value: 9.12%); format: functional
HeLa [5] = test: Cell cycle arrest in human HeLa cells assessed as accumulation at S phase at 2.5 uM after 12 hrs by FACS analysis (reference value: 29.14%); format: functional
HeLa [6] = test: Cell cycle arrest in human HeLa cells assessed as accumulation at G0/G1 phase at 5 uM after 12 hrs by FACS analysis (reference value: 61.74%); format: functional
HeLa [7] = test: Cell cycle arrest in human HeLa cells assessed as accumulation at S phase at 5 uM after 12 hrs by FACS analysis (reference value: 29.14%); format: functional
HeLa [8] = test: Cell cycle arrest in human HeLa cells assessed as accumulation at G2/M phase at 2.5 uM after 12 hrs by FACS analysis (reference value: 9.12%); format: functional
HeLa [9] = test: Cell cycle arrest in human HeLa cells assessed as accumulation at G0/G1 phase at 1.25 uM after 12 hrs by FACS analysis (reference value: 61.74%); format: functional
HeLa [10] = test: Cell cycle arrest in human HeLa cells assessed as accumulation at G0/G1 phase at 2.5 uM after 12 hrs by FACS analysis (reference value: 61.74%); format: functional
HeLa [11] = test: Cell cycle arrest in human HeLa cells assessed as accumulation at G2/M phase at 1.25 uM after 12 hrs by FACS analysis (reference value: 9.12%); format: functional
HeLa [12] = test: Cell cycle arrest in human HeLa cells assessed as accumulation at G2/M phase after 12 hrs by FACS analysis; format: functional, cell-based
HeLa [13] = test: Cell cycle arrest in human HeLa cells assessed as accumulation at S phase at 1.25 uM after 12 hrs by FACS analysis (reference value: 29.14%); format: functional
[14] = Inhibition of pig brain tubulin polymerization by spectrophotometric analysis; design: species or system Sus scrofa

SMILES | IC50 (MDA-MB-231) | IC50 (MCF7) | IC50 (HCT-116 [1]) | IC50 (HeLa [2]) | inhibition (Sus scrofa) | other results
O=C(c1ccccc1)c1[nH]c2cc(Cl)ccc2c1Nc1nc(N2CCOCC2)ncc1[N+](=O)[O-] | > 100 µM | > 100 µM | > 100 µM | > 100 µM | 9% | 
COc1ccc(C(=O)c2[nH]c3ccccc3c2Nc2nc(N3CCSCC3)ncc2[N+](=O)[O-])cc1 | > 100 µM | > 100 µM | > 100 µM | > 100 µM |  | 
O=C(c1ccc(Cl)cc1)c1[nH]c2cc(Cl)ccc2c1Nc1nc(N2CCOCC2)ncc1[N+](=O)[O-] | > 100 µM | 83.7 µM | > 100 µM | > 100 µM |  | 
Cc1ccc2c(Nc3nc(N4CCOCC4)ncc3[N+](=O)[O-])c(C(=O)c3cccs3)[nH]c2c1 | 93.7 µM | > 100 µM | 39.1 µM | > 100 µM |  | 
COc1ccc(/C=C\c2cc(OC)c(OC)c(OC)c2)cc1O [COMBRETASTATIN A4] | 270 µM | 0.041 µM | 6.1 µM | 0.23 µM | 80% | 
Cc1ccc2c(Nc3nc(N4CCOCC4)ncc3[N+](=O)[O-])c(C(=O)c3ccc(Cl)cc3)[nH]c2c1 | > 100 µM | 98.7 µM | > 100 µM | > 100 µM |  | 
O=C(c1ccccc1)c1[nH]c2ccccc2c1Nc1nc(N2CCSCC2)ncc1[N+](=O)[O-] | > 100 µM | > 100 µM | > 100 µM | > 100 µM | 2% | 
Cc1ccc2c(Nc3nc(N4CCOCC4)ncc3[N+](=O)[O-])c(C(=O)c3ccc(-c4ccccc4)cc3)[nH]c2c1 | > 100 µM | 60.4 µM | > 100 µM | 7.46 µM |  | 
Cc1ccc2c(Nc3nc(N4CCOCC4)ncc3[N+](=O)[O-])c(C(=O)c3ccc(Br)cc3)[nH]c2c1 | > 100 µM | > 100 µM | > 100 µM | > 100 µM |  | 
O=C(c1ccc(Br)cc1)c1[nH]c2ccccc2c1Nc1nc(N2CCSCC2)ncc1[N+](=O)[O-] | > 100 µM | > 100 µM | > 100 µM | > 100 µM |  | 
COc1ccc(C(=O)c2[nH]c3cc(Cl)ccc3c2Nc2nc(N3CCOCC3)ncc2[N+](=O)[O-])cc1 | > 100 µM | 35 µM | 24.4 µM | 47.1 µM | 14% | 
O=C(c1cccs1)c1[nH]c2cc(Cl)ccc2c1Nc1nc(N2CCOCC2)ncc1[N+](=O)[O-] | > 100 µM | 69.4 µM | > 100 µM | 94.7 µM | 19% | 

The remaining compounds from weak to strong by IC50 (MDA-MB-231), led by results:

IC50 (MDA-MB-231) | IC50 (MCF7) | IC50 (HCT-116 [1]) | IC50 (HeLa [2]) | inhibition (Sus scrofa) | SMILES | other results
92.6 µM | 89.2 µM | 55.8 µM | 82.5 µM | 23% | O=C(c1ccccc1)c1[nH]c2ccccc2c1Nc1nc(N2CCOCC2)ncc1[N+](=O)[O-] | 
89.4 µM | 89.4 µM | 73.5 µM | 49.6 µM |  | O=C(c1[nH]c2ccccc2c1Nc1nc(N2CCOCC2)ncc1[N+](=O)[O-])C1CC1 | 
89.4 µM | > 100 µM | 44 µM | 90.5 µM |  | COc1ccc(C(=O)c2[nH]c3cc(C)ccc3c2Nc2nc(N3CCOCC3)ncc2[N+](=O)[O-])cc1 | 
76.3 µM | 56.8 µM | 80.6 µM | 47.1 µM |  | Cc1ccc2c(Nc3nc(N4CCOCC4)ncc3[N+](=O)[O-])c(C(=O)c3ccccc3)[nH]c2c1 | 
58.7 µM | 42.7 µM | > 100 µM | 16.6 µM |  | O=C(c1ccc(-c2ccccc2)cc1)c1[nH]c2cc(Cl)ccc2c1Nc1nc(N2CCOCC2)ncc1[N+](=O)[O-] | 
35.8 µM | 78.4 µM | 80.6 µM | > 100 µM |  | CCOC(=O)n1c(C(=O)c2ccccc2)c(Nc2nc(N3CCOCC3)ncc2[N+](=O)[O-])c2ccc(Cl)cc21 | 
34.1 µM | 85.4 µM | 33.3 µM | 54.3 µM |  | O=C(c1ccc(Br)cc1)c1[nH]c2ccccc2c1Nc1nc(N2CCOCC2)ncc1[N+](=O)[O-] | 
10.3 µM | 0.29 µM | 9.48 µM | 4.04 µM | 42% | O=C(c1ccc(-c2ccccc2)cc1)c1[nH]c2ccccc2c1Nc1nc(N2CCOCC2)ncc1[N+](=O)[O-] | IC50 (HEK293): 78.6 µM; IC50 [14]: 19.3 µM
9.42 µM | 1.42 µM | 11.4 µM | 2.51 µM | 36% | O=C(c1cccc(Br)c1)c1[nH]c2ccccc2c1Nc1nc(N2CCOCC2)ncc1[N+](=O)[O-] | Activity (HeLa [4]): 88.58%; Activity (HeLa [5]): 26.35%; IC50 (HEK293): 10.1 µM; Activity (HeLa [6]): 5.02%; Activity (HeLa [7]): 6.4%; Activity (HeLa [8]): 58.34%; Activity (HeLa [9]): 53.32%; Activity (HeLa [10]): 15.31%; Activity (HeLa [11]): 12.63%; Activity (HeLa [12]): Dose-dependent effect; Activity (HeLa [13]): 34.05%
8.69 µM | 57.1 µM | 6.4 µM | 4.32 µM | 14% | COc1ccc(C(=O)c2[nH]c3ccccc3c2Nc2nc(N3CCOCC3)ncc2[N+](=O)[O-])cc1 | IC50 (HEK293): 14.8 µM
5.01 µM | 13.9 µM | 17.4 µM | 19.9 µM | 47% | CN1CCN(c2ncc([N+](=O)[O-])c(Nc3c(C(=O)c4cccs4)[nH]c4cc(Cl)ccc34)n2)CC1 | IC50 (HEK293): > 100 µM
3.01 µM | 2.13 µM | 2.99 µM | 5.52 µM | 19% | CCOC(=O)n1c(C(=O)c2ccc(OC)cc2)c(Nc2nc(N3CCOCC3)ncc2[N+](=O)[O-])c2ccccc21 | IC50 (HEK293): > 100 µM; Ratio IC50 (HCT-116 [3]): 2

Source: ChEMBL document CHEMBL4020719, “Synthesis and biological evaluation of novel indole-pyrimidine hybrids bearing morpholine and thiomorpholine moieties” (Eur J Med Chem, 2017)
